Measurements taken from patent US11633506B2, “Using targeted radiotherapy (TRT) to drive anti-tumor immune response to immunotherapies” (Wisconsin Alumni Research Foundation, priority 2016, dated 2023).
“Also recorded” adds a separate entry of the source.

How the values were obtained:
[1] = test system: in vivo cancer and cancer stem cell models; settings: regardless of anatomic location; cited from earlier work
[2] = test system: B78 melanoma; assay: ^124I-NM404 PET/CT imaging; assay type: in vivo, mouse; settings: IV; ~200 mm^3 B78 tumor; image at 71 h
From the text: FIG. 5 is an image showing selective uptake of ^124I-NM404 by B78 melanoma. A mouse bearing a ˜200 mm^3 B78 tumor received IV ^124I-NM404 and had serial PET/CT scans done.
^131I-NM404 has shown selective uptake in vitro in >95% of tumor lines (human and mouse), with poor uptake by non-malignant cells, and with similar tumor specificity seen in vivo. This includes selective uptake in vivo with the B78 tumor (FIG. 5). In our preliminary dosimetry study, we gave ^124I-NM404 to C57BL/6 mice and characterized the time course of TRT exposure by serial PET/CT imaging (as in FIG. 5). […] After those four weeks, the remaining TRT dose to the B78 tumor would be less than 0.25 Gy. We will replicate the data we obtained in our 2-tumor model using xRT (FIG. 3), but use the lowest possible dose of targeted ^131I-NM404 TRT to enable effective elimination of tumor-induced tolerance at all sites of distant disease. However, unlike xRT, which delivers all dose in minutes and is then done, TRT deposits dose over time, depending upon both the biological and physical half-life of the targeted isotope (8 day t½ for ^131I). We want an initial TRT effect at the distant tumor sites to eradicate immune tolerance; however we want the immunosuppressive TRT effect to then be minimal when we give the IT-IC to induce ADCC and the in situ vaccine anti-tumor effects. […]

[3] = test system: B78 tumor tissue; assay: RT-PCR gene expression of immune signatures in tumor tissue after TRT; assay type: in vivo, mice; settings: TRT alone; pretreatment and 8 d intervals
Method: Finally, to characterizing the immunological effects of TRT on the immune cells within tumors, we have treated B78 bearing mice with ^131I-NM404 and collected tumor tissue at pretreatment and at half-life (8 d) intervals thereafter. These tissues were then analyzed by RT-PCR for gene expression of a panel of immune signatures.

[4] = test system: B78 tumor; assay: Monte Carlo dosimetry from serial ^124I-NM404 PET/CT; assay type: in vivo, C57BL/6 mice
From the text: (§1) ^131I-NM404 has shown selective uptake in vitro in >95% of tumor lines (human and mouse), with poor uptake by non-malignant cells, and with similar tumor specificity seen in vivo. This includes selective uptake in vivo with the B78 tumor (FIG. 5). In our preliminary dosimetry study, we gave ^124I-NM404 to C57BL/6 mice and characterized the time course of TRT exposure by serial PET/CT imaging (as in FIG. 5). […] After those four weeks, the remaining TRT dose to the B78 tumor would be less than 0.25 Gy. We will replicate the data we obtained in our 2-tumor model using xRT (FIG. 3), but use the lowest possible dose of targeted ^131I-NM404 TRT to enable effective elimination of tumor-induced tolerance at all sites of distant disease. However, unlike xRT, which delivers all dose in minutes and is then done, TRT deposits dose over time, depending upon both the biological and physical half-life of the targeted isotope (8 day t½ for ^131I). We want an initial TRT effect at the distant tumor sites to eradicate immune tolerance; however we want the immunosuppressive TRT effect to then be minimal when we give the IT-IC to induce ADCC and the in situ vaccine anti-tumor effects. This is essential to allow full tumor destruction at all sites.
(§2) Using the dosimetry calculations from our preliminary data, we estimated that a dose of 3 μCi of ^131I-NM404, should deliver an equivalent of ˜0.2 Gy to the tumor site, a dose that we hypothesized should not be immunosuppressive and should not prevent lymphocyte-mediated tumor destruction. As noted above, this is the dose we estimated would remain yet to be delivered 28 days after an initial ^131I-NM404 dose of 60 μCi. We thus evaluated groups of mice bearing a single 200 mm^3 B78 tumor. On day 0, all mice got 12 Gy xRT to their tumor, and on days 6-10, all got 50 mcg/d of IT-IC. One group also got 3 μCi of ^131I-NM404 on d-0 (˜0.2 Gy). […] We thus hypothesize that if we use an initial dose of 60 μCi of ^131I-NM404 TRT on day-22, it would effectively block the tolerogenic effect of distant tumors, yet enable xRT on day 0 and IT-IC on days 6-10 (28 d after the TRT) to the first tumor to function as an in situ vaccine, inducing an adaptive response that then eradicates all tumors.
Based on the preliminary data described above in Examples 1-4, studies have been done to move these concepts into in vivo testing using TRT. […] This was done in order to estimate the amount of ^131I-NM404 that would be needed to approximate ˜2 Gy of xRT.
In most clinical scenarios, it is not feasible to deliver external beam, even low dose, to all tumor sites without eliciting marked bone marrow depletion and leukopenia that would result in immunosuppression. […]

[5] = test system: radiosensitive lymphoma tumor; assay: ^131I-NM404 in mice bearing a radiosensitive lymphoma tumor; assay type: in vivo; settings: ~2 Gy equivalent dose
From the text: (§3) In order to then determine if a ˜2 Gy equivalent dose of ^131I-NM404 would have the desired effects against intratumor lymphoid cells (particularly Tregs), 2 separate approaches have been pursued.

[6] = test system: tumor lines (human and mouse); assay: selective uptake in vitro in tumor lines; assay type: cell-based; settings: poor uptake by non-malignant cells
From the text: as §1

[7] = test system: B78 tumors; assay: low dose ^131I-NM404 TRT: blood counts and tumor infiltrating T cells; assay type: in vivo, C57BL/6 mice
From the text: as §3
A second approach involved treating mice with B78 tumors with these same doses of ^131I-NM404. […] This observation again supports our hypothesis that it will be feasible to use TRT to overcome Treg-mediated CIT in order to rescue an in situ vaccine effect in animals bearing multiple tumors.
In most clinical scenarios, it is not feasible to deliver external beam, even low dose, to all tumor sites without eliciting marked bone marrow depletion and leukopenia that would result in immunosuppression. Here we tested whether TRT could be administered systemically to specifically deplete tumor infiltrating suppressive immune cells (Tregs), without triggering systemic immune cell depletion and leukopenia. Dosimetry studies in this B78 melanoma tumor model were performed using positron-emitting ^124I-NM404 confirm tumor-selective uptake of NM404 (FIG. 12A). C57BL/6 mice bearing B78 tumors were treated with 60 μCi ^131I-NM404. This activity approximates the amount of ^131I-NM404 necessary to deliver ˜2 Gy TRT to a B78 tumor. Peripheral blood and tumor samples were collected in untreated control mice (C) and at 8 day intervals (T1=d8, T2=d16, T3=d24, T4=d32) thereafter.

[8] = test system: B78 tumor; assay: ^131I-NM404 with xRT+IT-IC, single B78 tumor; assay type: in vivo, mice
From the text: as §2
Using the data summarized in Examples 7 and 8, a study was done in mice bearing 2 separate B78 tumors. Mice received the estimated required systemic ^131I-NM404 dose followed by xRT and local immunotherapy to the in situ vaccine site. […]

[9] = test system: two B78 tumors; assay: ^131I-NM404 + xRT + IT-IC in mice bearing two B78 tumors; assay type: in vivo, C57BL/6 mice; settings: 60 μCi day 1, 12 Gy xRT to primary day 8, IT-IC days 13-17
From the text: Using the data summarized in Examples 7 and 8, a study was done in mice bearing 2 separate B78 tumors. Mice received the estimated required systemic ^131I-NM404 dose followed by xRT and local immunotherapy to the in situ vaccine site. […] Further testing, and modification of some of the experimental variables, is underway in order to try to maximize the desired effect of blocking CIT without suppressing the in situ vaccine effect. More details regarding these experiments are disclosed in Example 10 below.
Given the capacity of low dose ^131I-NM404 TRT to deplete tumor-infiltrating Tregs without rendering a mouse leukopenic, we tested whether low dose ^131I-NM404 might effectively overcome concomitant immune tolerance. C57BL/6 mice bearing two B78 tumors were treated with 60-μCi ^131I-NM404 on day 1 (NM404), as indicated. After one half-life (day 8), animals received 12 Gy xRT or no xRT to the primary tumor (in situ vaccine site). Control mice receiving no ^131I-NM404 were treated to the secondary tumor as indicated (0, 2, or 12 Gy). Mice received daily IT injections of IC to the primary tumor (in situ vaccine site), as indicated, on days 13-17.

[10] = test system: Tregs; assay: Treg depletion by diphtheria toxin in DEREG mice with primary and secondary B78 tumors treated with xRT+IT-IC; assay type: in vivo; settings: IP diphtheria toxin vs PBS, with xRT+IT-IC to primary tumor
[11] = 3 and 4 half-life time points, vs untreated baseline and 2nd half-life

C[N+](C)(C)CCOP(=O)([O-])OCCCCCCCCCCCCCCCCCCc1ccc(I)cc1 [NM404, 18-(p-iodophenyl)octadecyl phosphocholine]
tumor uptake / targeting across in vivo models [1]: near universal tumor uptake in all but three of over 70 in vivo models

C[N+](C)(C)CCOP(=O)([O-])OCCCCCCCCCCCCCCCCCCc1ccc([124I])cc1 [^124I-NM404]
tumor uptake on PET/CT [2]: Excellent tumor uptake; also recorded: selective uptake by the tumor with some residual background uptake by the heart and liver

C[N+](C)(C)CCOP(=O)([O-])OCCCCCCCCCCCCCCCCCCc1ccc([131I])cc1 [^131I-NM404]
gene expression of immune signatures [3]: striking changes in expression of tumor cell markers of immunsusceptibility and in genes normally expressed only by immune cells | dose delivered to the tumor site ([4]; 3 μCi): ~0.2 Gy | remaining TRT dose to the B78 tumor ([4]; after four weeks, initial 60 μCi): less than 0.25 Gy | activity necessary to deliver ~2 Gy TRT to a B78 tumor ([4]; mouse, in vivo): ~60 μCi | activity needed to deliver ~3 Gy to an established B78 tumor ([4]; over a four week period of decay): ~60 μCi | lymphoid tumor response [5]: potent lymphoid tumor shrinkage/dose-dependent inhibition | tumor lines with selective uptake in vitro [6]: > 95% | intratumor effector CD8+ T cells ([7]; 2 half-life time point): decrease in intratumor effector CD8+ T cells | intratumor FoxP3+ Tregs ([7]; 2 half-lifes after TRT): decrease in intratumor FoxP3+ Tregs | intratumor CD8+ effector T cells [7, 11]: increase in intratumor CD8+ effector T cells | intratumor Tregs [7, 11]: further decline in the levels of intratumor Tregs | level of tumor infiltrating CD8+ effector T cells ([7]; 60 μCi, d8-d32): did not significantly affect the level of tumor infiltrating CD8+ effector T cells | tumor infiltrating FoxP3+ Tregs ([7]; 60 μCi, d8-d32): significantly depleted | systemic leukopenia ([7]; 60 μCi, peripheral blood d8-d32): did not result in any significant systemic leukopenia | circulating lymphoid cells (peripheral complete blood counts) ([7]; ~2 Gy equivalent dose): did not cause either substantial shrinkage/slowing of the B78 tumor or any evident depletion of circulating lymphoid cells | B78 tumor growth ([7]; ~2 Gy equivalent dose, TRT alone): did not cause either substantial shrinkage/slowing of the B78 tumor | systemic lymphopenia (peripheral complete blood count) ([7]; ~2 Gy equivalent dose, half-life (8 d) intervals): no systemic lymphopenia at any time point | tumor eradication by xRT+IT-IC with vs without TRT ([8]; 3 μCi on d-0 (~0.2 Gy), 12 Gy xRT day 0, IT-IC days 6-10): same degree of tumor eradication; also recorded: equally effective | local in situ vaccine effect ([8]; estimated required systemic TRT dose, mice with one tumor): did not appear to interfere with the local in situ vaccine effect | concomitant immune tolerance (CIT) / primary and secondary tumor response [9]: did appear to attenuate CIT; also recorded: effectively overcomes concomitant immune tolerance and rescues the systemic anti-tumor effect of in situ vaccination | tumor uptake / targeting across in vivo models [1]: nearly universal tumor targeting properties in over 60 in vivo cancer and cancer stem cell models

diphtheria toxin
primary and secondary tumor response [10]: improved primary (FIG. 9B) and secondary (FIG. 9C) tumor response
